Columns and labels:
[1] = Cytotoxicity, MTT method, MDCK cells; format: cell-based, canine; conditions: dog, uninfected MDCK cells, host cells of H1N1: MDCK
Method: (§1) The 50% cell cytotoxic concentrations (CC50s) of compounds were calculated using SPSS software. SI were calculated from the ratio of CC50: EC50.

[2] = Cytotoxicity, ATPLite luminescence-based assay, RD cells; format: cell-based; conditions: human
Description: (§2) The ATPLite assay may be more sensitive to cytotoxicity than the MTT method. For RD and Hep-2 cells, similar results were obtained, and for HeLa and MDCK cells, the values of CC50 from the ATPLite assay were smaller than those from MTT assays (Tables 1, 2 and 3).

[3] = Cytotoxicity, MTT method, Hep-2 cells; format: cell-based; conditions: human, uninfected Hep-2 cells; host cells of CVB3: Hep-2, MTT, 48 h; read-out: CC50 (CVB3)
Method: as §1

EV71 [4] = test: Dependence of anti-EV71 activity on virus inoculum (cell viability, MTT) in RD cells; format: cell-based, Enterovirus 71; conditions: for anti-EV71 inhibition at excessive virus inoculum: virus concentration above 10^4 TCID50
[5] = Cytotoxicity, ATPLite luminescence-based assay, MDCK cells; format: cell-based, canine; conditions: dog
Description: as §2

EV71 [6] = test: microbe, parasite or virus in culture; conditions: Enterovirus A, EV71, RD, 48 h, read-out: EC50, compound concentration required to achieve 50% protection from virus-induced cytopathogenicity
Method: (§3) Cell viability was assessed by an MTT assay, which functions based on the reduction of a MTT into formazan dye by active mitochondria. The cells were treated with 100 μL of MTT (1 mg/mL, Sigma) and incubated at 37°C for 4 h. The reaction was blocked by DMSO and measured in a microplate reader (Bio-Tek Instruments) at 492 nm. The untreated control was arbitrarily set as 100%.
(§4) Confluent cell monolayers in 96-well dishes were infected with 100 TCID50 of corresponding virus dilution mixed with serial dilutions of tested compounds for 1 h at 37°C. Inocula were aspirated and the cells were then incubated with various concentrations of DMEM/tested compounds at 37°C, 5% CO2 for 48 h. CPE were observed microscopically and the viability of the cells was determined using MTT assays. […] The concentrations required for the tested compounds to achieve 50% protection of cells from virus-induced CPE were determined.

[7] = Cytotoxicity, MTT method, HeLa cells; format: cell-based; conditions: human, uninfected HeLa cells; host cells of ADV-7: HeLa, MTT, 48 h; read-out: CC50 (ADV-7)
Method: as §1

H1N1 [8] = test: Virus yield reduction assay, H1N1; format: cell-based, influenza virus A/human/Hubei/86/2009 (H1N1); conditions: MDCK cells; — = less than 90% inhibition
Method: Virus yield reduction assays were also carried out to evaluate further the protective effects of the tested compounds.
The virus suspension, serially diluted 10-fold with DMEM containing 2% FBS, was inoculated to cells in a 96-well plate. After 1 h incubation at 37°C in 5% CO2, unbinding virus was washed out and DMEM maintenance medium supplemented with 2% FBS was added to the cells. After 2 days, the infected cells were monitored for cytopathic effects (CPEs). The virus titer was calculated by the Reed–Muench method.

EV71 [9] = test: Progeny virus yield reduction, EV71 in RD cells; format: cell-based, Enterovirus 71; conditions: for reduction in progeny virus titers relative to virus control: 80 μM, 100 TCID50 EV71, RD cells, 10 h; for EC90: Enterovirus A, EV71, RD cells, progeny viral yield, read-out: EC90, compound concentration required to achieve 90% virus yield reduction
HSV-1 [10] = test: Plaque reduction assay, HSV-1 in Hep-2 cells; conditions: for EC50: Human alphaherpesvirus 1, HEp-2, read-out: EC50 HSV-1
Method: Confluent monolayers of Hep-2 cells, seeded in a 24-well plate, were infected with HSV-1 at a density of 60–80 plaque-forming units (PFU) per well and treated with media (pre-warmed DMEM containing 2% FBS, 0.8% low-melting agarose) mixed with or without the serially diluted tested compounds for the periods indicated following different procedures. The cells were incubated at 37°C until plaques appeared, followed by fixing with 10% formaldehyde and staining with 0.5% crystal violet. The plaques were counted by visual examination. The ratio of the number of plaques in the treated group to that in the untreated control was calculated.
A plaque reduction assay was performed to measure the inhibitory effects of the test compounds against HSV-1 infection.

[11] = Cytotoxicity, ATPLite luminescence-based assay, HeLa cells; format: cell-based; conditions: human
Description: as §2

[12] = Cytotoxicity, MTT method, uninfected RD cells; format: cell-based; conditions: human; RD cells, MTT, 48 h; mean ± SD of three experiments; read-out: CC50, compound concentration required to reduce cell viability by 50%
Method: as §1

[13] = parameters: method as in PMID 11377760; conditions: in vivo, 80 mg/kg; cited from earlier work
ADV-7 [14] = test: Virus yield reduction assay, ADV-7; format: cell-based, adenovirus 7; conditions: Human mastadenovirus B; HeLa cells; read-out: EC90 ADV-7, concentration required to inhibit 90% virus yield
CVB3 [15] = test: Inhibition of CVB3-induced CPE in Hep-2 cells; conditions: for EC50: Enterovirus B, CVB3, HEp-2, 48 h, read-out: EC50 CVB3; for SI CVB3, ratio CC50/EC50: Hep-2 cells
Method: as §3, §4

EV71 [16] = conditions: EV71, RD cells
Method: as §3, §4

HSV-1 [17] = test: Virus yield reduction assay, HSV-1; format: cell-based, herpes simplex virus 1; conditions: Hep-2 cells; — = less than 90% inhibition
ADV-7 [18] = test: Inhibition of ADV-7-induced CPE in HeLa cells; conditions: for SI ADV-7, ratio CC50/EC50: HeLa cells; for EC50: Human mastadenovirus B, HeLa, 48 h, read-out: EC50 ADV-7
Method: as §3, §4

[19] = Cytotoxicity, ATPLite luminescence-based assay, Hep-2 cells; format: cell-based; conditions: human
Description: as §2

H1N1 [20] = test: Inhibition of H1N1-induced CPE in MDCK cells; format: cell-based, influenza virus A/human/Hubei/86/2009 (H1N1)
CVB3 [21] = test: Virus yield reduction assay, CVB3; format: cell-based, Coxsackievirus B3; conditions: Hep-2 cells, — = less than 90% inhibition
EV71 [22] = test: Release analysis, EV71 from RD cells; format: cell-based, Enterovirus 71; conditions: 80 μM pimprinethine, 40 μM WS-30581 A or B; 12 h p.i.
EV71 [23] = test: Virucidal activity against EV71; format: cell-based, Enterovirus 71; conditions: 80 μM pimprinethine, 40 μM WS-30581 A or 40 μM WS-30581 B; 24 h at 4°C; 10^3 TCID50
EV71 [24] = test: Adsorption analysis, EV71 on RD cells; format: cell-based, Enterovirus 71; conditions: 160 μM pimprinethine, 80 μM WS-30581 A, 80 μM WS-30581 B; EV71 10^4 TCID50; 2 h adsorption
[25] = parameters: method as in PMID 6501088; conditions: ddY mice, intraperitoneal injection; cited from earlier work
EV71 [26] = test: Effective stage analysis, EV71 in RD cells; format: cell-based, Enterovirus 71; conditions: 48 h

SMILES | CC50 at 48 h [1] [µM] | CC50 [2] [µM] | CC50 at 48 h [3] [µM] | anti-EV71 inhibition at excessive virus inoculum (EV71 [4]) | EC50 (EV71 [6]) [µM] | CC50 at 48 h [7] [µM] | EC90 H1N1, concentration required to inhibit 90% virus yield (H1N1 [8]) | reduction in progeny virus titers relative to virus control (EV71 [9]) | EC90 (EV71 [9]) [µM] | SI HSV-1, ratio CC50/EC50 (HSV-1 [10]; Hep-2 cells) | EC50 (HSV-1 [10]) [µM] | CC50 at 48 h [12] [µM] | EC90 (ADV-7 [14]) [µM] | EC50 (CVB3 [15]) [µM] | SI CVB3, ratio CC50/EC50 (CVB3 [15]) | SI (selectivity index), ratio CC50/EC50 (EV71 [16]) | EC90 HSV-1, concentration required to inhibit 90% virus yield (HSV-1 [17]) | SI ADV-7, ratio CC50/EC50 (ADV-7 [18]) | EC50 (ADV-7 [18]) [µM] | inhibition of H1N1 infection (H1N1 [20]; MDCK cells) | also measured
Cc1ncc(-c2c[nH]c3ccccc23)o1 [Pimprinine, 5, 30-indolyl-2-methyloxazole] | 899 ± 56 | 1260 ± 247 | 443 ± 35 | no inhibition observed | 89 ± 18 | 1140 ± 181 | — (—, less than 50% or 90% inhibition) | approximately 0.5 log | 149 ± 12 | 3 | 160 ± 18 | 1460 ± 27 | 266 ± 14 | 95 ± 16 | 5 | 16 | — (—, less than 50% or 90% inhibition) | 8 | 150 ± 10 | negligible measurable inhibition | viability at 10 µM (EV71 [4]; Enterovirus A, 10 μM, 10^4 TCID50 EV71, 48 h pi): 7%; viability at 20 µM (EV71 [4]; Enterovirus A, 20 μM, 10^4 TCID50 EV71, 48 h pi): 19%; viability at 40 µM (EV71 [4]; Enterovirus A, 40 μM, 10^4 TCID50 EV71, 48 h pi): 16%; viability at 80 µM (EV71 [4]; Enterovirus A, 80 μM, 10^4 TCID50 EV71, 48 h pi): 22%; viability at 160 µM (EV71 [4]; Enterovirus A, 160 μM, 10^4 TCID50 EV71, 48 h pi): 28%; CC50 [5]: 649 ± 77 µM; CC50 [11]: 940 ± 219 µM; protection against electrically induced convulsions [13]: significant protection; CC50 [19]: 403 ± 53 µM; EC50 H1N1 (H1N1 [20]; MDCK cells, 100 TCID50, 48 h, CPE, — = less than 50% inhibition): — (—, less than 50% or 90% inhibition); EC90 CVB3, concentration required to inhibit 90% virus yield (CVB3 [21]): —^f (—, less than 50% or 90% inhibition)
CCCc1ncc(-c2c[nH]c3ccccc23)o1 [WS-30581 A] | 212 ± 18 | 313 ± 49 | 72 ± 8 | Inhibition was eliminated | 16 ± 1 | 217 ± 4 | — (—, less than 50% or 90% inhibition) | 3.0 log | 26 ± 6 | 4 | 18 ± 2 | 363 ± 13 | 43 ± 3 | 14 ± 4 | 5 | 23 | — (—, less than 50% or 90% inhibition) | 13 | 17 ± 18 | less than 70% | release of EV71 from RD cells (EV71 [22]): unaffected; inhibition of HSV-1-induced plaque formation (HSV-1 [10]; inhibition achievable, Hep-2 cells): approximately 80%; virus titers of EV71 mixture with vs without compound (virucidal activity) (EV71 [23]): No significant difference; virus titer during virus attachment (adsorption) (EV71 [24]): no significant decrease; EC50 (H1N1 [20]; Influenza A virus, H1N1, MDCK, 48 h, read-out: EC50 H1N1): 38 ± 7 µM; SI H1N1, ratio CC50/EC50 (H1N1 [20]; MDCK cells): 6; acute toxicity [25]: above 250 mg/kg; virus titer reduction vs untreated cells (EV71 [26]; 80 μM, added post infection, EV71 100 TCID50): approximately 5.0 log; viability at 80 µM (EV71 [26]; Enterovirus A, RD, added post infection (therapeutic), EV71 100 TCID50, read-out: viability rates of the infected cells): ~100%; EC90 (CVB3 [21]; Enterovirus B, CVB3, read-out: EC90 CVB3, concentration required to inhibit 90% virus yield): 39 ± 4 µM

Reference: publication PMC4253628, “Antiviral effects against EV71 of pimprinine and its derivatives isolated from Streptomyces sp” (Virology Journal, 2014)
